In the NIST ThermoML archive (doi:10.1016/j.jct.2004.09.017):
Numbers after ± are expanded uncertainties.

What was measured:
[1] = refractive index (Na D-line) (dimensionless); details: 298.2 K; 101.33 kPa; Liquid
[2] = relative permittivity at various frequencies (dimensionless); details: 298.2 K; 101.3 kPa; Liquid; Frequency=0.01 MHz; Wayne Kerr model 6425B Digibridge
[3] = refractive index (Na D-line) (dimensionless); xn = mol fraction of the nth substance listed; details: 298.2 K, 101.3 kPa, Liquid
[4] = relative permittivity at various frequencies (dimensionless); xn = mol fraction of the nth substance listed; details: 298.2 K, 101.3 kPa, Liquid, Frequency=0.1 MHz, Wayne Kerr model 6425B Digibridge

CCCCC(CC)CO (configuration not stated) [2-ethyl-1-hexanol]
refractive index [1]: 1.4316 ± 0.001
relative permittivity [2]: 7.354 ± 0.29

CCCCC(CC)CO (configuration not stated) [2-ethyl-1-hexanol] + CC(C)(C)O
refractive index ([3]; x2 = 0): 1.4316 ± 0.001
refractive index ([3]; x2 = 0.05): 1.4304 ± 0.001
refractive index ([3]; x2 = 0.07): 1.4298 ± 0.001
refractive index ([3]; x2 = 0.09): 1.429 ± 0.001
refractive index ([3]; x2 = 0.1): 1.4287 ± 0.001
refractive index ([3]; x2 = 0.2): 1.427 ± 0.001
refractive index ([3]; x2 = 0.3): 1.4235 ± 0.001
refractive index ([3]; x2 = 0.4): 1.42 ± 0.001
refractive index ([3]; x2 = 0.5): 1.4163 ± 0.001
refractive index ([3]; x2 = 0.6): 1.4117 ± 0.001
relative permittivity ([4]; x2 = 0): 7.354 ± 0.29
relative permittivity ([4]; x2 = 0.05): 7.487 ± 0.3
relative permittivity ([4]; x2 = 0.07): 7.598 ± 0.3
relative permittivity ([4]; x2 = 0.09): 7.653 ± 0.31
relative permittivity ([4]; x2 = 0.1): 7.685 ± 0.31
relative permittivity ([4]; x2 = 0.2): 8.057 ± 0.32
relative permittivity ([4]; x2 = 0.3): 8.506 ± 0.34
relative permittivity ([4]; x2 = 0.4): 8.933 ± 0.36
relative permittivity ([4]; x2 = 0.5): 9.398 ± 0.38
relative permittivity ([4]; x2 = 0.6): 9.952 ± 0.4

CCCCC(CC)CO (configuration not stated) [2-ethyl-1-hexanol] + CCCCO
refractive index ([3]; x2 = 0): 1.4316 ± 0.001
refractive index ([3]; x2 = 0.1): 1.4291 ± 0.001
refractive index ([3]; x2 = 0.15): 1.4278 ± 0.001
refractive index ([3]; x2 = 0.3): 1.4238 ± 0.001
refractive index ([3]; x2 = 0.42): 1.4214 ± 0.001
refractive index ([3]; x2 = 0.53): 1.4182 ± 0.001
refractive index ([3]; x2 = 0.63): 1.415 ± 0.001
refractive index ([3]; x2 = 0.72): 1.412 ± 0.001
refractive index ([3]; x2 = 0.8): 1.4088 ± 0.001
refractive index ([3]; x2 = 0.9): 1.4036 ± 0.001
relative permittivity ([4]; x2 = 0): 7.354 ± 0.29
relative permittivity ([4]; x2 = 0.1): 8.21 ± 0.33
relative permittivity ([4]; x2 = 0.15): 8.682 ± 0.35
relative permittivity ([4]; x2 = 0.3): 10.48 ± 0.42
relative permittivity ([4]; x2 = 0.42): 11.42 ± 0.46
relative permittivity ([4]; x2 = 0.53): 12.01 ± 0.48
relative permittivity ([4]; x2 = 0.63): 12.9 ± 0.52
relative permittivity ([4]; x2 = 0.72): 14.34 ± 0.57
relative permittivity ([4]; x2 = 0.8): 15.21 ± 0.61
relative permittivity ([4]; x2 = 0.9): 16.41 ± 0.66

CCCCC(CC)CO (configuration not stated) [2-ethyl-1-hexanol] + CCO
refractive index ([3]; x2 = 0): 1.4316 ± 0.001
refractive index ([3]; x2 = 0.12): 1.4261 ± 0.001
refractive index ([3]; x2 = 0.23): 1.4232 ± 0.001
refractive index ([3]; x2 = 0.32): 1.4194 ± 0.001
refractive index ([3]; x2 = 0.4): 1.4162 ± 0.001
refractive index ([3]; x2 = 0.47): 1.4123 ± 0.001
refractive index ([3]; x2 = 0.53): 1.4097 ± 0.001
refractive index ([3]; x2 = 0.64): 1.4015 ± 0.001
refractive index ([3]; x2 = 0.7): 1.3971 ± 0.001
refractive index ([3]; x2 = 0.82): 1.386 ± 0.001
relative permittivity ([4]; x2 = 0): 7.354 ± 0.29
relative permittivity ([4]; x2 = 0.12): 8.086 ± 0.32
relative permittivity ([4]; x2 = 0.23): 8.999 ± 0.36
relative permittivity ([4]; x2 = 0.32): 10.192 ± 0.41
relative permittivity ([4]; x2 = 0.4): 11.099 ± 0.44
relative permittivity ([4]; x2 = 0.47): 12.08 ± 0.48
relative permittivity ([4]; x2 = 0.53): 12.744 ± 0.51
relative permittivity ([4]; x2 = 0.64): 14.496 ± 0.58
relative permittivity ([4]; x2 = 0.7): 15.885 ± 0.64
relative permittivity ([4]; x2 = 0.82): 18.259 ± 0.73

CC(C)(C)O [2-methylpropan-2-ol]
refractive index [1]: 1.3864 ± 0.001
relative permittivity [2]: 12.23 ± 0.49

CC(C)(C)O [2-methylpropan-2-ol] + C1CCCCC1
refractive index ([3]; x1 = 0.07): 1.4241 ± 0.001
refractive index ([3]; x1 = 0.1): 1.4226 ± 0.001
refractive index ([3]; x1 = 0.2): 1.4179 ± 0.001
refractive index ([3]; x1 = 0.3): 1.4138 ± 0.001
refractive index ([3]; x1 = 0.4): 1.41 ± 0.001
refractive index ([3]; x1 = 0.5): 1.4056 ± 0.001
refractive index ([3]; x1 = 0.6): 1.4007 ± 0.001
refractive index ([3]; x1 = 0.8): 1.3928 ± 0.001
relative permittivity ([4]; x1 = 0.07): 2.051 ± 0.082
relative permittivity ([4]; x1 = 0.1): 2.058 ± 0.082
relative permittivity ([4]; x1 = 0.2): 2.089 ± 0.084
relative permittivity ([4]; x1 = 0.3): 2.308 ± 0.092
relative permittivity ([4]; x1 = 0.4): 2.586 ± 0.1
relative permittivity ([4]; x1 = 0.5): 3.096 ± 0.12
relative permittivity ([4]; x1 = 0.6): 3.88 ± 0.16
relative permittivity ([4]; x1 = 0.8): 6.422 ± 0.26

CC(C)(C)O [2-methylpropan-2-ol] + CCCCC(CC)CO
refractive index ([3]; x1 = 1): 1.3864 ± 0.001
relative permittivity ([4]; x1 = 1): 12.23 ± 0.49

CCCCO [butan-1-ol]
refractive index [1]: 1.3988 ± 0.001
relative permittivity [2]: 17.5 ± 0.7

CCCCO [butan-1-ol] + CCCCC(CC)CO
refractive index ([3]; x1 = 1): 1.3988 ± 0.001
relative permittivity ([4]; x1 = 1): 17.5 ± 0.7

C1CCCCC1 [cyclohexane] + CCCCO
refractive index ([3]; x2 = 0.05): 1.4206 ± 0.001
refractive index ([3]; x2 = 0.1): 1.4191 ± 0.001
refractive index ([3]; x2 = 0.2): 1.4162 ± 0.001
refractive index ([3]; x2 = 0.3): 1.4132 ± 0.001
refractive index ([3]; x2 = 0.4): 1.4109 ± 0.001
refractive index ([3]; x2 = 0.5): 1.4085 ± 0.001
refractive index ([3]; x2 = 0.6): 1.4061 ± 0.001
refractive index ([3]; x2 = 0.72): 1.4035 ± 0.001
relative permittivity ([4]; x2 = 0.05): 2.439 ± 0.098
relative permittivity ([4]; x2 = 0.1): 2.683 ± 0.11
relative permittivity ([4]; x2 = 0.2): 3.112 ± 0.12
relative permittivity ([4]; x2 = 0.3): 3.952 ± 0.16
relative permittivity ([4]; x2 = 0.4): 4.888 ± 0.2
relative permittivity ([4]; x2 = 0.5): 6.713 ± 0.27
relative permittivity ([4]; x2 = 0.6): 8.451 ± 0.34
relative permittivity ([4]; x2 = 0.72): 10.848 ± 0.43

C1CCCCC1 [cyclohexane] + CCO
refractive index ([3]; x2 = 0.1): 1.4235 ± 0.001
refractive index ([3]; x2 = 0.24): 1.4179 ± 0.001
refractive index ([3]; x2 = 0.42): 1.4103 ± 0.001
refractive index ([3]; x2 = 0.55): 1.4032 ± 0.001
refractive index ([3]; x2 = 0.66): 1.3953 ± 0.001
refractive index ([3]; x2 = 0.74): 1.3887 ± 0.001
refractive index ([3]; x2 = 0.81): 1.3813 ± 0.001
refractive index ([3]; x2 = 0.9): 1.3733 ± 0.001
relative permittivity ([4]; x2 = 0.1): 2.155 ± 0.086
relative permittivity ([4]; x2 = 0.24): 2.571 ± 0.1
relative permittivity ([4]; x2 = 0.42): 4.223 ± 0.17
relative permittivity ([4]; x2 = 0.55): 6.462 ± 0.26
relative permittivity ([4]; x2 = 0.66): 8.974 ± 0.36
relative permittivity ([4]; x2 = 0.74): 11.249 ± 0.45
relative permittivity ([4]; x2 = 0.81): 13.878 ± 0.56
relative permittivity ([4]; x2 = 0.9): 17.89 ± 0.72

CCO [ethanol]
refractive index [1]: 1.3592 ± 0.001
relative permittivity [2]: 23.646 ± 0.95

CCO [ethanol] + CCCCC(CC)CO
refractive index ([3]; x1 = 1): 1.3592 ± 0.001
relative permittivity ([4]; x1 = 1): 23.646 ± 0.95
